Series [1] deals with caterpillars of the diamondback moth (Plutella xylostella, sensitive strain). Nature of the series: Plutella test, sensitive strain (LC95, Carpenter). In kind it is in vivo. The conditions noted are these: found. From the text: Plutella Test, Sensitive Strain
The subject of series [2] is caterpillars of the armyworm (Spodoptera frugiperda). Put plainly: Spodoptera frugiperda test (LC50, Carpenter). In kind it is in vivo. The conditions noted are these: found, cabbage leaf dip. From the text:
(§1) Spodoptera frugiperda Test

Series [3] concerns caterpillars of the diamondback moth (Plutella xylostella, resistant strain). Put plainly: Plutella test, resistant strain (LC95, Carpenter). In kind it is in vivo. The settings on record: found. From the text:
Plutella Test, Resistant Strain

Series [4] has as its system larvae of the mustard beetle (Phaedon cochleariae). Nature of the series: Phaedon larvae test (LC50, Carpenter). The conditions noted are these: found, cabbage leaf dip.
Series [5] relates to Heliothis virescens caterpillars. Nature of the series: Heliothis virescens test (kill rate, Colby). The series is classed as in vivo. The conditions noted are these: soya bean shoot dip. The protocol:
(§2) The kill rates determined are calculated using Colby's formula (see sheet 1).

Series [6] concerns larvae of the mustard beetle (Phaedon cochleariae). Put plainly: Phaedon larvae test (kill rate, Colby). The series is classed as in vivo. The settings on record: cabbage leaf dip. Here is the method:
as §2

Series [7] has as its system caterpillars of the armyworm (Spodoptera frugiperda). Nature of the series: Spodoptera frugiperda test (kill rate, Colby). In kind it is in vivo. The conditions noted are these: cabbage leaf dip. Here is the method: as §1, §2
In series [8] the test system is normally sensitive caterpillars of the diamondback moth (Plutella xylostella). Put plainly: Plutella test (normally sensitive) (kill rate, Colby). The conditions noted are these: normally sensitive strain. In kind it is in vivo. The protocol:
Plutella Test (Normally Sensitive)
as §2

Series [9] has as its system resistant caterpillars of the diamondback moth (Plutella xylostella). Nature of the series: Plutella test (resistant) (kill rate, Colby). The settings on record: resistant strain. The series is classed as in vivo. Here is the method: Plutella Test (Resistant)
as §2

`CN/C(=N\[N+](=O)[O-])NCc1cnc(Cl)s1` [clothianidin (X), (E)-1-(2-chloro-1,3-thiazol-5-yl-methyl)-3-methyl-2-nitroguanidine]: the “LC95 after 6 days” value is recorded as 26.037 ppm in series [1] and 50.722 ppm in series [3]. Further, the results for the “LC50 after 6 days” value in [2] and in series [4] were 0.662 ppm and 2.372 ppm, respectively.

Regarding `O=[N+]([O-])/N=C1\NCCN1Cc1ccc(Cl)nc1` [imidacloprid, 1-[(6-chloro-3-pyridinyl)methyl]-N-nitro-2-imidazolidineimine], the “Kill rate in % after 3 days” value in series [5] (3 ppm) came out at 15%; in series [6] (3 ppm), 0%. The “Kill rate in % after 6 days” value in series [7] (0.6 ppm) was 0%.

With `N#C/N=C1\SCCN1Cc1ccc(Cl)nc1` [thiacloprid, (Z)-3-(6-chloro-3-pyridylmethyl)-1,3-thiazolidin-2-ylidenecyanamide], the “Kill rate in % after 6 days” value in series [8] (3 ppm), in [6] (3 ppm) and in series [9] (3 ppm) was 0% each time.

For the compound `COC(=O)N(C(=O)N1CO[C@@]2(C(=O)OC)Cc3cc(Cl)ccc3C2=N1)c1ccc(OC(F)(F)F)cc1` [indoxacarb], the “Kill rate in % after 6 days” value in series [8] (0.1 ppm) came to 65%; in series [6] (0.5 ppm), 45%; in series [7] (0.02 ppm) it was 0%; in series [9] (0.1 ppm) it was 55%. Moreover, the “LC95 after 6 days” value in series [1] was 0.531 ppm; in series [3] it was 0.234 ppm. Moreover, the “Kill rate in % after 3 days” value in [5] (0.1 ppm) is given as 0%; in series [6] (0.5 ppm), 20%. In addition, the “LC50 after 6 days” value worked out at 0.136 ppm in [2] and 0.1 ppm in series [4].
